The test system of data set [1] is craving and craving anxiety for smoking, alcohol or drug use. Kind of data set: Pilot study case reports: craving and craving anxiety after rapid (nasal/sublingual) delivery of micro-doses. It counts as in vivo, human. Particulars: Example 7: bupropion 250 micrograms added, nasal delivery.
Method: About 40-50 minutes later the craving anxiety for smoking started to climb.
Their craving for smoking and alcohol were linked making smoking more severe during times of alcohol use.
This profound change depends on them giving themself one or two doses before getting out of bed in the morning as this is the most severe craving in the day.
They averaged 20 doses per day.
For another data set, the system named is smoking addiction. Particulars: Cochrane review; cited from earlier work.
Data set [2] is described as follows: Oral naltrexone absorption and presence in blood stream. Conditions: standard oral administration, one off dose of 50 mg per day. From the text: As with all addictions, craving anxiety builds and is then reduced at the time of drug use or when the habit is repeated. The cycle then repeats itself. Craving may present itself with anxiety or in some cases presents itself where the individual places himself in a risky situation or searches for the substance or opportunity for the substance or event.

For data set [3] the following is noted: oral dosage form, 50 mg per day; cited from earlier work.
For data set [4] the following is noted: in vivo; cited from earlier work.
The conditions of data set [5]: cited from earlier work.

“Also recorded” adds a separate entry of the source.

Turning to `CC(NC(C)(C)C)C(=O)c1cccc(Cl)c1` (stereo not shown) [bupropion], the “effect of bupropion on the effectiveness of the flumazenil/naltrexone combination” value in data set [1] is reported as “maximise the effectiveness”.

For the compound `O=C1CC[C@@]2(O)[C@H]3Cc4ccc(O)c5c4[C@@]2(CCN3CC2CC2)[C@H]1O5` [naltrexone], in the data set with smoking addiction, the “efficacy in smoking addiction / smoking cessation” value is “does not give any evidence of smoking cessation; also recorded: not effective”. Further, in data set [2], the “time naltrexone is undetectable in the blood stream” value was 18 hours a day. In addition, the “time after administration at which oral naltrexone disappears from the blood stream” value in data set [3] is “six”.

For the compound `CCOC(=O)c1ncn2c1CN(C)C(=O)c1cc(F)ccc1-2` [flumazenil], in data set [4], the half-life result is on record as “less than one”. In data set [5] (intravenous flumazenil, literature), the side effects entry is reported as “panic attacks or fitting”. Further, in data set [5] (intravenous injection, recorded by Mims), the safe dose entry is recorded as “up to 100 mg”.
